Article PMC9948211 (ACS Omega, 2023)

Biological target: T1, PPAR-γ (Homo sapiens, UniProt P37231)
T1 sequence (P37231 1-505): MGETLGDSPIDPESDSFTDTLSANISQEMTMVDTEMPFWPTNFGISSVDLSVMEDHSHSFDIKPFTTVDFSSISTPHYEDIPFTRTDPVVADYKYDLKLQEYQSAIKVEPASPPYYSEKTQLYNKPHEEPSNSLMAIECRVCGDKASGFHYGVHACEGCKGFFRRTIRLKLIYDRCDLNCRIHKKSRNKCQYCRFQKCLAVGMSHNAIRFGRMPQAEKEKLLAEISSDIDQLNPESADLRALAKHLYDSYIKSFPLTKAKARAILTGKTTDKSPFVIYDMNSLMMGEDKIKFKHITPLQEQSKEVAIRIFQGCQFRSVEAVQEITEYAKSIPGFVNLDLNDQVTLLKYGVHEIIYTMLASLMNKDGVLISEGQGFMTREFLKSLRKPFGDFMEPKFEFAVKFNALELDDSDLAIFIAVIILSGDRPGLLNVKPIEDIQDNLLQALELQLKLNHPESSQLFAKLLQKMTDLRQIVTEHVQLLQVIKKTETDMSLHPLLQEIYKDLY
Assay: LanthaScreen TR-FRET competitive binding assay

IC50 [µM] | Compound
2.25 | COc1cc(CC/C(C)=N\O)ccc1OCC(=O)Nc1ccc(F)cc1 [G1, (Z)-N-(4-Fluorophenyl)-2-(4-(3-(hydroxyimino)butyl)-2-methoxyphenoxy)acetamide]
4.51 | COc1cc(CC/C(C)=N\O)ccc1OCC(=O)Nc1nccs1 [G2, (Z)-2-(4-(3-(Hydroxyimino)butyl)-2-methoxyphenoxy)-N-(thiazol-2-yl)acetamide]
